Data: patent publication US20080004290A1, “Anti-Cancer Agents” (THE UNIVERSITY OF QUEENSLAND, priority 2003, published 2008)
Where two headings read alike, the source gives them in different places.

Assays:
MM96L melanoma cells = assay: Cell survival assay (clonogenic survival, SRB); format: cell-based, human
Summary of the method: (§1)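 Cells (5×10^3/well, RPMI 1640 with 10% FCS) treated 24 h with compound at 0.01-10 μg/mL, then washed and grown 72 h drug-free at 37 °C, 5% CO2. Survival read by SRB staining after methylated-spirit fixation, absorbance 564 nm.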

[1] = tested on: NFF, neonatal foreskin fibroblasts; assay: Cell survival assay (clonogenic survival, SRB), normal cells; format: cell-based, human
Summary of the method: as §1

JAM ovarian cancer cells = assay: Cell survival assay (SRB); format: cell-based, human; settings: Table 10, standard deviations in parentheses, read-out: Cell line IC50 (μM) JAM
Experimental: (§2) Cell Lines and Culture Medium. All cell lines used in this study have been described previously (Parsons et al., 1986; Todaro et al., 1980; Glenn et al., 2004). All cell lines were cultured in 10% heat-inactivated foetal calf serum (CSL, Australia) in RPMI 1640 medium supplemented with 100 U/mL penicillin, 100 μg/mL streptomycin, and 3 mM HEPES at 5% CO2, 99% humidity at 37° C. Primary human fibroblasts were obtained from neonatal foreskins and cultured in the above medium. Routine mycoplasma tests were performed using Hoechst stain^i and were always negative.
(§3) Cell Survival Assay. Cells were plated into 96-well microtitre plates at 5×10^3 cells/well, and allowed to adhere overnight. Test compounds were added to culture medium at the indicated concentrations, and plates incubated in the above conditions for 24 hours. Following this incubation period, compounds and media were removed, and replaced with fresh culture medium. Cells were then grown for a further 72 hours before assay using sulforhodamine B (SRB; Sigma, St. Louis, Mo.) as previously described. Briefly, the culture medium was removed from the 96-well microtitre plates and the plates washed twice with phosphate buffered saline (PBS), before the cells were fixed with methylated spirits for 15 minutes. The plates were then rinsed with tap water and the fixed cells stained with 50 μL/well of SRB solution (0.4% sulforhodamine B (w/v) in 1% (v/v) acetic acid) over a period of 1 hour. The SRB solution was then removed from the wells and the plates rapidly washed two times with 1% (v/v) acetic acid. Protein bound dye was then solubilised with the addition of 100 μL of 10 mM unbuffered Tris, and incubated for 15 min at 25° C. Plates were then read at 564 nm on a VERSA max tunable microplate reader (Molecular Devices, Sunnyvale, Calif.).
(§4) For comparison their results are also shown for MM96L and NFF cell lines.

[2] = tested on: MCF-7 breast cancer cells; assay: Cell survival assay (SRB); format: cell-based, human; settings: Table 10, standard deviations in parentheses, read-out: Cell line IC50 (μM) MCF7
Experimental: as §2, §3, §4

DO4 melanoma cells = assay: Cell survival assay (SRB); format: cell-based, human; settings: Table 10, standard deviations in parentheses, read-out: Cell line IC50 (μM) DO4
Experimental: as §2, §3, §4

[3] = tested on: CI-80-13S ovarian cancer cells; assay: Cell survival assay (SRB); format: cell-based, human; settings: Table 10, standard deviations in parentheses, read-out: Cell line IC50 (μM) C18013S
Experimental: as §2, §3, §4

[4] = tested on: DU145 prostate cancer cells; assay: Cell survival assay (SRB); format: cell-based, human; settings: Table 10, standard deviations in parentheses, read-out: Cell line IC50 (μM) DU145
Experimental: as §2, §3, §4

SkMel28 melanoma cells = assay: Cell survival assay (SRB); format: cell-based, human; settings: Table 10, standard deviations in parentheses, read-out: Cell line IC50 (μM) SkMel
Experimental: as §2, §3, §4

histone deacetylase = assay: Histone hyperacetylation (histone H4, Triton-acetic acid-urea gel) in MM96L cells; format: cell-based, human; settings: (figure legends: 5 μg/mL, 8 hours)
Experimental: FIG. 1. Acetylation of Histones. […] Lane 1: untreated. Lane 2: compound of example 22 Lane 3: compound of example 40. Lane 4: TSA. Non-acetylated (A), mono-acetylated (B), di-acetylated (C), tri-acetylated (D) and tetra-acetylated (E) histone H4 are indicated.
FIG. 2. Acetylation of histones MM96L cells were treated with 5 μg/ml of various compound for 8 hr, before harvest and analysis of histone H4 acetylation by Triton-acetic acid-urea gel as previously described (Saito et al., 1991; Qiu et al., 1999). Lane 1: untreated: lane 2: Compound of example 73; lane 3: Compound of example 40; lane 4: TSA. Non-acetylated (A), mono-acetylated (B), di-acetylated (C), tri-acetylated (D) and tetra-acetylated (E) histone H4 are indicated.
Histone Hyperacetylation.

p21^WAF1/Cip1 (CDKN1A) = assay: Induction of p21 expression (semi-quantitative RT-PCR) in MM96L cells; format: cell-based, human; settings: MM96L melanoma cells, 10 μg/ml, after 16 hrs treatment
Source text: Induction of p21 Expression. It has been postulated that histone acetylation is associated with activation of gene transcription. […] Possibly the best characterised gene to be induced following exposure to different HDAC inhibitors is that of the cyclin-dependent kinase inhibitor p21^WAF1/Cip1, which blocks cyclin-dependent kinase activity thereby causing cell-cycle arrest in G1. HDAC inhibitors are thought to act directly on the CDKN1A promoter rather than an upstream target. The HDAC inhibitor SAHA induces accumulation of acetylated histones in the chromatin associated with the CDKN1A gene, and this correlates with the observed increase in transcription. […]
Cell Treatment and Total RNA Isolation. […] RNA was analysed for sufficient quality by formamide agarose gel electrophoresis, and quantified by spectrophotometry.
p21 Expression. The semi-quantitative analysis of mRNA expression of p21^WAF1/Cip1 was carried out by RT-PCR. […] Products were analysed by agarose gel electrophoresis, and visualised on a UV light box. Product intensity was determined to increase linearly with number of cycles and amount of mRNA used, by densitometric analysis using ImageQuaNT 4.2 software (Molecular Dynamics, Sunnyvale, Calif.). Quantitation of p21^WAF1/Cip1 induction was also performed by densitometric analysis using ImageQuaNT 4.2 software following normalisation to GAPDH product intensity.

[5] = Oral bioavailability, plasma concentration after oral and intravenous administration; format: in vivo, Wistar rats; settings: 5 mg/kg in 4:1 olive oil:DMSO, three rats starved prior to dosing
Experimental: FIG. 7. Oral Bioavailability. Time dependent plasma concentration of compound of example 24 after oral (top) and intravenous (bottom) administration at 5 mg/kg to each of three Wistar rats.
Compounds of the invention were examined to see whether this new series had the expected favorable properties for oral delivery. […] Compound 24 (Log D7.0 2.7) was administered intravenously and orally to rats. […] Neither vehicle nor fasting had any significant effects on these parameters.

[6] = Table 5, 24 hours with compound, further growth, SRB, read-out: IC50 MM96L
[7] = Table 5, Selectivity Index = IC50 (NFF)/IC50 (MM96L)
[8] = Table 10, standard deviations in parentheses, read-out: Cell line IC50 (μM) MM96L
[9] = Table 5, 24 hours with compound, further growth, SRB, read-out: IC50 NFF
[10] = Table 10, standard deviations in parentheses, read-out: Cell line IC50 (μM) NFF
[11] = Homo sapiens, MM96L, 24 h, Table 6, 24 hours with compound, further growth, SRB, read-out: IC50 (μM) MM96L
[12] = Homo sapiens, MM96L, Table 10, standard deviations in parentheses, read-out: Cell line IC50 (μM) MM96L
[13] = Table 6, IC50 (NFF)/IC50 (MM96L)
[14] = Homo sapiens, Fibroblast, 24 h, Table 6, 24 hours with compound, further growth, SRB, read-out: IC50 (μM) NFF
[15] = Homo sapiens, Fibroblast, Table 10, standard deviations in parentheses, read-out: Cell line IC50 (μM) NFF

| Compound | IC50 (MM96L melanoma cells; [8]) [µM] | IC50 [1, 10] [µM] | IC50 (JAM ovarian cancer cells) [µM] | IC50 [2] [µM] | IC50 (DO4 melanoma cells) [µM] | IC50 [3] [µM] | IC50 [4] [µM] | IC50 (SkMel28 melanoma cells) [µM] | IC50 (MM96L melanoma cells; [11]) [µM] | IC50 (MM96L melanoma cells; [12]) [µM] | Selectivity (MM96L melanoma cells; [13]) | IC50 [1, 14] [µM] | IC50 [1, 15] [µM] | IC50 (JAM ovarian cancer cells; Homo sapiens) [µM] | IC50 ([2]; Homo sapiens, MCF7) [µM] | IC50 (DO4 melanoma cells; Homo sapiens, DO4) [µM] | IC50 ([3]; Homo sapiens, C180-13S) [µM] | IC50 ([4]; Homo sapiens, DU-145) [µM] | IC50 (SkMel28 melanoma cells; Homo sapiens, SK-MEL-28) [µM] | also measured |
| --- | --- | --- | --- | --- | --- | --- | --- | --- | --- | --- | --- | --- | --- | --- | --- | --- | --- | --- | --- | --- |
| CN(C)c1ccc(C(=O)N[C@@H](CSCCCC(=O)NO)C(=O)NCc2ccccc2)cc1 [Example 22] | 0.14 | 0.35 | 1.24 | 0.59 | 2 | 0.7 | 0.61 | 3 |  |  |  |  |  |  |  |  |  |  |  | IC50 (MM96L melanoma cells; [6]): 0.14 ± 0.09 µM; Selectivity (MM96L melanoma cells; [7]): 2.5; IC50 [1, 9]: 0.35 ± 0.07 µM; acetylation state of histone H4 (histone deacetylase): hyperacetylation of H4 |
| O=C(CCCSC[C@H](NC(=O)c1ccc(Br)cc1)C(=O)NCc1ccccc1)NO [Example 24] | 0.2 | 0.83 | 2 | 1.16 | 3.5 | 1.5 | 3.8 | 5.7 |  |  |  |  |  |  |  |  |  |  |  | Induction of mRNA for p21^WAF1/Cip1 (p21^WAF1/Cip1 (CDKN1A)): Induction of mRNA for p21^WAF1/Cip1 was seen; Tmax [5]: ~15 min; time for which high serum levels of drug were maintained [5]: > 4 h; Cmax ([5]; serum, preliminary study): ~6 µg/mL |
| O=C(CCCSC[C@H](NC(=O)c1cc2ccccc2[nH]1)C(=O)NCc1ccccc1)NO [Example 40] | 0.13 | 0.8 | 0.75 | 0.84 | 1.3 | 0.4 | 0.4 | 1.7 |  |  |  |  |  |  |  |  |  |  |  | IC50 (MM96L melanoma cells; [6]): 0.13 ± 0.09 µM; Selectivity (MM96L melanoma cells; [7]): 6.2; IC50 [1, 9]: 0.8 ± 0.2 µM; acetylation state of histone H4 (histone deacetylase): hyperacetylation of H4 |
| CN(C)c1ccc(C(=O)N[C@@H](CSCCCC(=O)NO)C(=O)Nc2ccc(-c3ccccc3)cc2)cc1 [Example 61] |  |  |  |  |  |  |  |  | 0.17 ± 0.05 | 0.17 | 1.9 | 0.32 ± 0.05 | 0.32 | 0.6 | 0.48 | 0.83 | 0.38 | 0.37 | 1.11 |  |
| CN(C)c1ccc(C(=O)N[C@@H](CSCCCC(=O)NO)C(=O)NC2CCCc3ccccc32)cc1 (stereo partly shown) [Example 67] |  |  |  |  |  |  |  |  | 0.2 ± 0.1 | 0.2 | 11 | 2.2 ± 0.2 | 2.2 | 1.47 | 0.96 | 2.73 | 1.24 | 1.06 | 2.59 | IC50 (MM96L melanoma cells; Homo sapiens, MM96L, most preferred compounds, exemplary examples, read-out: potency of IC50 against the MM96 melanoma cells): ≤ 0.5 µM; Induction of mRNA for p21^WAF1/Cip1 (p21^WAF1/Cip1 (CDKN1A)): Induction of mRNA for p21^WAF1/Cip1 was seen |
| CN(C)c1ccc(C(=O)N[C@@H](CSCCCC(=O)NO)C(=O)N[C@H]2c3ccccc3C[C@H]2O)cc1 [Example 70] | 0.9 | 8.2 | 7.22 | 3.3 | 7.12 | 2.5 | 3.76 | 6.14 |  |  | 9.1 |  |  |  |  |  |  |  |  | IC50 (MM96L melanoma cells; Table 6, 24 hours with compound, further growth, SRB, read-out: IC50 (μM) MM96L): 0.9 ± 0.05 µM; IC50 ([1]; Table 6, 24 hours with compound, further growth, SRB, read-out: IC50 (μM) NFF): 8.2 ± 0.8 µM |
| CN(C)c1ccc(C(=O)N[C@@H](CSCCCC(=O)NO)C(=O)Nc2cccnc2)cc1 [Example 78] |  |  |  |  |  |  |  |  | 2.1 ± 0.1 | 0.51 | 5.6 | 11 ± 1 | 3.6 | 2.3 | 0.97 | 2.48 | 1.36 | 1.06 | 2.33 |  |
